Assay results as given in patent publication US8076332B2, “N- (2-aminophenyl) benzamide derivative having urea structure” (Santen Pharmaceutical Co., Ltd., priority 2006, dated 2011).

Columns and labels:
[1] = test system: human trabecular meshwork cell line (TM-1 cells); experiment: Test for evaluation of effect of morphological change on trabecular meshwork cells (cell shape index, CSI); type: cell-based; details: final concentration 10 μM, incubation 24 hours, CSI=4π×(Cell Area)/(Cell Perimeter)^2, average per group, Control 0.730
Experimental: 1. Test for Evaluation of Effect of Morphological Change on Trabecular Meshwork Cells
As a method for evaluating a cellular morphological change, an evaluation system using the cell shape index (hereinafter referred to as “CSI”) as an index has been reported in The Journal of Clinical Investigation, 103, 1141-1150 (1999). Therefore, according to the method described in the above document, an effect of morphological change of the present compounds on trabecular meshwork cells was evaluated.
A human trabecular meshwork cell line (hereinafter referred to as “TM-1 cells”) reported in Investigative Opthalmology & Visual Science, 43, 151-161 (2002) was used.
Culture medium 1: A reagent was prepared by adding fetal bovine serum (10%), L-glutamine (2 mM), amphotericin B (2.5 μg/mL), and gentamicin (25 μg/mL) to Dulbecco's modified Eagle medium (hereinafter referred to as “D-MEM”).
Culture medium 2: Fetal bovine serum (3%), L-glutamine (2 mM), amphotericin B (2.5 μg/mL), and gentamicin (25 μg/mL) were added to D-MEM.
Cell staining liquid: A mixed liquid of Calcein-AM (16 μM) and Hoechst 33342 (40 μM) was prepared by diluting a Calcein-AM solution (cytoplasmic staining reagent, manufactured by Dojindo Laboratories) and a Hoechst 33342 solution (nuclear staining reagent, manufactured by Dojindo Laboratories) with D-MEM containing L-glutamine (2 mM), amphotericin B (2.5 μg/mL), and gentamicin (25 μg/mL).
TM-1 cells subcultured at 37° C. in a 8% carbon dioxide gas atmosphere were treated with a trypsin/EDTA solution (0.05% trypsin and 0.53 mM tetrasodium ethylenediaminetetraacetate) at 24 hours before performing a drug treatment mentioned below and seeded on a 96-well culture plate. The culture medium 1 was used for the subculture of the cells. The culture medium 2 was used for the cell culture after seeding the cells on the plate.
A test compound was dissolved in dimethyl sulfoxide, whereby a 5 mM solution was prepared. Then, the resulting solution was diluted with the culture medium 2, whereby a 200 μM test compound solution was prepared.
It has been reported that Y-27632 which is a Rho kinase inhibitor induces a morphological change in trabecular meshwork cells in Investigative Ophthalmology & Visual Science, 42, 137-144 (2001). Therefore, Y-27632 (produced according to the method described in WO 90/05723) was used as a positive control, and dissolved in dimethyl sulfoxide in the same manner as the test compound, whereby a 5 mM solution was prepared, and then, the resulting solution was diluted with the culture medium 2, whereby a 200 μM positive control compound solution was prepared.
1) To a 96-well culture plate, a solution of TM-1 cells adjusted to a cell density of […] was added in an amount of 95 μL (1.5×10^4 cells) per well.
2) Incubation was performed at 37° C. in a 8% carbon dioxide gas atmosphere for 24 hours.
3) The test compound solution or positive control compound solution was added in an amount of 5 μL per well (the final concentration of the test compound or positive control compound was 10 μM). As a control, the culture medium 2 containing dimethyl sulfoxide (4%) was added in an amount of 5 μL per well.
4) Incubation was performed at 37° C. in a 8% carbon dioxide gas atmosphere for 24 hours.
5) The cell staining liquid was added in an amount of 10 μL per well.
6) Incubation was performed at 37° C. in a 8% carbon dioxide gas atmosphere for 1 hour to stain the cells.
7) A 37% formaldehyde solution was added in an amount of 10 μL per well.
8) Incubation was performed at room temperature for 1 hour to fix the cells.
9) Washing with phosphate-buffered saline was performed.
10) Using Array Scan Vti HCS reader (manufactured by Cellomics), images of stained cells magnified with a 20 times objective lens were captured in 80 fields (10 fields×8 wells) per test compound addition group.
11) CSI was calculated for each cell and an average value was obtained for each test compound addition group. […]

[2] = test system: male Japanese White rabbits; experiment: Test for evaluation of intraocular pressure-lowering effect (intracameral administration); type: in vivo; details: 20 μL of 1 mM administration liquid to one eye, at 9 hours after administering, versus vehicle control group, 6 cases per group
Experimental: 2. Test for Evaluation of Intraocular Pressure-Lowering Effect
In order to evaluate an intraocular pressure-lowering effect of the present compounds, a test for evaluation of intraocular pressure-lowering effect of intracameral administration of a drug using male Japanese White rabbits was performed.
A test compound was dissolved or suspended in physiological saline containing 0.5% dimethyl sulfoxide, whereby a 1 mM test compound administration liquid was prepared.
One drop of 0.4% oxybuprocaine hydrochloride eye drop was instilled into both eyes of each male Japanese White rabbit to achieve local anesthesia, and thereafter, the intraocular pressure was measured using an applanation tonometer. Then, by using a syringe fitted with a 30-gauge needle, the test compound administration liquid (20 μL) was intracamerally administered to one eye. As a control, 20 μL of the vehicle (physiological saline containing 0.5% dimethyl sulfoxide) for the test compound was intracamerally administered. After the lapse of a certain period of time from the administration of the test compound or vehicle, one drop of 0.4% oxybuprocaine hydrochloride eye drop was instilled into the administered eye to achieve local anesthesia, and thereafter, the intraocular pressure was measured using an applanation tonometer.
The intraocular pressure-lowering effect of each test compound was evaluated by calculating an intraocular pressure reduction rate. The intraocular pressure reduction rate (%) was calculated using the following equation. (Intraocular Pressure Reduction rate(%))=100×(Average Value of Intraocular Pressure of Control Group)−(Average Value of Intraocular Pressure of Each Test Compound Administration Group)/(Average Value of Intraocular Pressure of Control Group) (Test Results)
As an example of the test results, the intraocular pressure reduction rates of the respective test compound administration groups at 9 hours after administering the respective test compounds (Compound 1-59, Compound 1-80, and Compound 2-2) are shown in Table II (one group consisting of 6 cases).

Row | SMILES | CSI [1] | Intraocular Pressure Reduction Rate (%) [2]
1 | CN(C)CCN(Cc1ccc(C(=O)Nc2ccccc2N)cc1)C(=O)Nc1ccc2c(c1)OCCO2 [Compound 1-80, N-(2-Aminophenyl)-4-[3-(2,3-dihydrobenzo[1,4]dioxin-6-yl)-1-(2-dimethylamino-ethyl)ureidomethyl]benzamide] | 0.543 | 18%
2 | CN(C)CCCN(Cc1ccc(C(=O)Nc2ccccc2N)cc1)C(=O)Nc1ccc(F)c([N+](=O)[O-])c1 [Compound 1-102, N-(2-Aminophenyl)-4-[1-(3-dimethylaminopropyl)-3-(4-fluoro-3-nitrophenyl)ureido-methyl]benzamide] | 0.538 | –
3 | C[C@@H](N)[C@H]1CC[C@H](C(=O)Nc2ccncc2)CC1 [Compound Y-27632, reference compound] | 0.600 | –
4 | CN(C)CCN(Cc1ccc(C(=O)Nc2ccccc2N)cc1)C(=O)NCc1ccccc1 [Compound 1-5, N-(2-Aminophenyl)-4-[3-benzyl-1-(2-dimethylaminoethyl)ureidomethyl]benzamide] | 0.636 | –
5 | COc1cccc(NC(=O)N(CCCN2CCOCC2)Cc2ccc(C(=O)Nc3ccccc3N)cc2)c1 [Compound 1-58, N-(2-Aminophenyl)-4-[3-(3-methoxyphenyl)-1-[3-(mor-pholin-4-yl)propyl]ureido-methyl]benzamide] | 0.610 | –
6 | COc1ccccc1NC(=O)N(CCCN(C)C)Cc1ccc(C(=O)Nc2ccccc2N)cc1 [Compound 2-3, N-(2-Aminophenyl)-4-[1-(3-dimethylaminopropyl)-3-(2-methoxyphenyl)ureidomethyl]benzamide] | 0.618 | –
7 | Cc1cc(NC(=O)N(CCCN2CCOCC2)Cc2ccc(C(=O)Nc3ccccc3N)cc2)ccc1F [Compound 1-135] | 0.555 | –
8 | CN(C)CCCN(Cc1ccc(C(=O)Nc2ccccc2N)cc1)C(=O)NC(C)(C)C [Compound 2-5, N-(2-Aminophenyl)-4-[3-t-butyl-1-(3-dimethylaminopropyl)ureidomethyl]benzamide] | 0.570 | –
9 | CN1CCN(CCN(Cc2ccc(C(=O)Nc3ccccc3N)cc2)C(=O)Nc2ccc(F)c(F)c2)CC1 [Compound 1-113, N-(2-Aminophenyl)-4-[3-(3,4-difluorophenyl)-1-[2-(4-methylpiperazin-1-yl)ethyl]-ureidomethyl]benzamide] | 0.585 | –
10 | CN(C)CCCN(Cc1ccc(C(=O)Nc2ccccc2N)cc1)C(=O)Nc1cccc(OCc2ccccc2)c1 [Compound 1-76, N-(2-aminophenyl)-4-[3-(3-benzyloxyphenyl)-1-(3-dimethylaminopropyl)ureidomethyl]benzamide] | 0.649 | –
11 | Nc1ccccc1NC(=O)c1ccc(CN(CCO)C(=O)NCCc2ccccc2)cc1 [Compound 1-49, N-(2-Aminophenyl)-4-[1-(2-hydroxyethyl)-3-phenylethyl-ureidomethyl]benzamide] | 0.630 | –
12 | Nc1ccccc1NC(=O)c1ccc(CN(CCCN2CCOCC2)C(=O)NCCc2ccc3c(c2)OCO3)cc1 [Compound 1-59, N-(2-Aminophenyl)-4-[3-[2-(benzo[1,3]dioxol-5-yl)ethyl]-1-[3-(morpholin-4-yl)propyl]ureidomethyl]benz-amide] | 0.571 | 19%
13 | CN(C)CCN(Cc1ccc(C(=O)Nc2ccccc2N)cc1)C(=O)Nc1ccccc1 [Compound 1-2, N-(2-Aminophenyl)-4-[1-(2-dimethylaminoerthyl)-3-phenyl-ureidomethyl]benzamide] | 0.599 | –
14 | CN(C)CCCN(Cc1ccc(C(=O)Nc2ccccc2N)cc1)C(=O)Nc1ccc(F)c(F)c1 [Compound 2-2, N-(2-Aminophenyl)-4-[3-(3,4-difluorophenyl)-1-(3-dimethylaminopropyl)ureidomethyl]benzamide] | 0.585 | 13%
